# Results as given in the kinase profiling compilation of Christmann-Franck et al. (2016).
# Assays:
# Assay in all cases: KINOMEscan competition binding
# Conditions in all cases: compound 10.0 µM
# [1] = target: PIP4K2B (human) (UniProt P78356)
# [2] = target: TYK2 JH2 pseudokinase (human) (UniProt P29597)
# [3] = target: SRPK3 (human) (UniProt Q9UPE1)
# [4] = target: RIOK1 (human) (UniProt Q9BRS2)
# [5] = target: PHKG2 (human) (UniProt P15735)
# [6] = target: TNIK (human) (UniProt Q9UKE5)
# [7] = target: STK11 (human) (UniProt Q15831)
# [8] = target: TAOK3 (human) (UniProt Q9H2K8)
# [9] = target: CLK2 (human) (UniProt P49760)
# [10] = test system: FLT3 (human), P36888 [K663Q]
# [11] = test system: EIF2AK4 KD2 (human), Q9P2K8 [S808G]
# [12] = target: TLK1 (human) (UniProt Q9UKI8)
# [13] = test system: KIT (human), P10721 [V559D]
# [14] = target: PIK3CG (human) (UniProt P48736)
# [15] = test system: FLT3 (human), P36888 [D835Y]
# [16] = target: GSK3A (human) (UniProt P49840)
# [17] = target: DMPK (human) (UniProt Q09013)
# [18] = target: TAOK1 (human) (UniProt Q7L7X3)
# [19] = target: MAP3K7 (human) (UniProt O43318)
# [20] = test system: FLT3 (human), P36888 [N841I]
# [21] = target: MKNK2 (human) (UniProt Q9HBH9)
# [22] = target: MAP2K4 (human) (UniProt P45985)
# [23] = target: CSNK1E (human) (UniProt P49674)
# [24] = target: RIOK3 (human) (UniProt O14730)
# [25] = target: CSNK2A1 (human) (UniProt P68400)
# [26] = target: RPS6KA2 KD2 (human) (UniProt Q15349)
# [27] = target: CHUK (human) (UniProt O15111)
# [28] = target: TGFBR2 (human) (UniProt P37173)
# [29] = test system: KIT (human), P10721 [V559D/V654A]
# [30] = test system: FLT3 (human), P36888 [ITD]
# [31] = target: CSNK2A2 (human) (UniProt P19784)
# [32] = target: DAPK3 (human) (UniProt O43293)
# [33] = target: MAPK15 (human) (UniProt Q8TD08)
# [34] = target: TNK1 (human) (UniProt Q13470)
# [35] = target: GAK (human) (UniProt O14976)
# [36] = target: AURKB (human) (UniProt Q96GD4)
# [37] = target: PIM3 (human) (UniProt Q86V86)
# [38] = test system: EGFR (human), P00533 [747-751 del / S ins]
# [39] = target: DAPK1 (human) (UniProt P53355)
# [40] = target: AURKC (human) (UniProt Q9UQB9)
# [41] = target: CLK1 (human) (UniProt P49759)
# [42] = target: ACVR2A (human) (UniProt P27037)
# Chain of KIT (human), P10721 [V559D] (P10721 whole entry V559D, looked up): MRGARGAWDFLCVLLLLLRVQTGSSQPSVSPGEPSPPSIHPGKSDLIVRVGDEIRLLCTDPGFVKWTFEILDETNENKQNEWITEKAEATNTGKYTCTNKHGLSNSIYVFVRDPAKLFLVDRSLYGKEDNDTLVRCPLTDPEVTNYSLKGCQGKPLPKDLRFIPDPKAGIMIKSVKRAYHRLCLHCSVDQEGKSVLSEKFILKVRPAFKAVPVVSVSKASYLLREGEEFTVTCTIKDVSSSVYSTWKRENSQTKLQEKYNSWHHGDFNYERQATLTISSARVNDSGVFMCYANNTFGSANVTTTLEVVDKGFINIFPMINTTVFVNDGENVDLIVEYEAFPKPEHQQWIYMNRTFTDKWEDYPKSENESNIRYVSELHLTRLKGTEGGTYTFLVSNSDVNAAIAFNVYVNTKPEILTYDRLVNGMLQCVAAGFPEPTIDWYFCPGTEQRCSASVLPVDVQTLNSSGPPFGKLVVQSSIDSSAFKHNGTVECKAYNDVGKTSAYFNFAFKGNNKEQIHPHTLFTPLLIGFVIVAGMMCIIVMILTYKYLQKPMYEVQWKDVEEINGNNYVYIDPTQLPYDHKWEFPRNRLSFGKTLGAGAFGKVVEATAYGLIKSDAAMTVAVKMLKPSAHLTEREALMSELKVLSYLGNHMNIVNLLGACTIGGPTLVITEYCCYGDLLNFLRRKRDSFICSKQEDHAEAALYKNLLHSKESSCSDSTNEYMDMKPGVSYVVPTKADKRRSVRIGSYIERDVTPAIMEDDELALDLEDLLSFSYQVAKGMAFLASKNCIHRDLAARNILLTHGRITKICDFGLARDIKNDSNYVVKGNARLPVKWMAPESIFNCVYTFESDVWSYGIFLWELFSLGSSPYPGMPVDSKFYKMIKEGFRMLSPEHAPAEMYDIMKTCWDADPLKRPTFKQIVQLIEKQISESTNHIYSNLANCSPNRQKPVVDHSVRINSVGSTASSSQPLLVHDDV
# Chain of PIP4K2B (human) (P78356 whole entry, looked up): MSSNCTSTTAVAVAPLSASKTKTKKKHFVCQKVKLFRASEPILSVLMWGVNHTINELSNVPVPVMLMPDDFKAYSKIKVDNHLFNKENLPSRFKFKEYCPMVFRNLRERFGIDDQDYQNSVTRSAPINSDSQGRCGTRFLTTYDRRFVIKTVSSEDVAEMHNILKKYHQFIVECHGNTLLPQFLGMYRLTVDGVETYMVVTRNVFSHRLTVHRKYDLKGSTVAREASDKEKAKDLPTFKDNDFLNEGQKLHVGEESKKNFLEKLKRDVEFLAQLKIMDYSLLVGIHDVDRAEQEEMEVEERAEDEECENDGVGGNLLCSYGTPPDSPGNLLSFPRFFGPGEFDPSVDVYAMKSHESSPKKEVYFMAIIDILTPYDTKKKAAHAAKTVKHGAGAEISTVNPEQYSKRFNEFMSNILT
# Chain of CLK2 (human) (P49760 whole entry, looked up): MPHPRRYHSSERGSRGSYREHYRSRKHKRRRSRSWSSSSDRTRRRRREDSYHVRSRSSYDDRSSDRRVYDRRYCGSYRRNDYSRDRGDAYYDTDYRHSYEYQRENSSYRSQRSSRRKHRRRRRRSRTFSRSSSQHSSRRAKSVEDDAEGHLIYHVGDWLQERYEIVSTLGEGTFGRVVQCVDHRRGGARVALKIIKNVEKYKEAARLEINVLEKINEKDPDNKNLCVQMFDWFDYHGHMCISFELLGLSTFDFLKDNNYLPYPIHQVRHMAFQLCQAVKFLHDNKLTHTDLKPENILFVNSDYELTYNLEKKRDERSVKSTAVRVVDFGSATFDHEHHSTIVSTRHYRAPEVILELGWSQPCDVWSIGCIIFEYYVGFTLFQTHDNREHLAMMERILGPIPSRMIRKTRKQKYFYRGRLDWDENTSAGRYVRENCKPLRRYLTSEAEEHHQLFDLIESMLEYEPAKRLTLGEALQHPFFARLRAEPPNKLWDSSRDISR
# Chain of RIOK1 (human) (Q9BRS2 whole entry, looked up): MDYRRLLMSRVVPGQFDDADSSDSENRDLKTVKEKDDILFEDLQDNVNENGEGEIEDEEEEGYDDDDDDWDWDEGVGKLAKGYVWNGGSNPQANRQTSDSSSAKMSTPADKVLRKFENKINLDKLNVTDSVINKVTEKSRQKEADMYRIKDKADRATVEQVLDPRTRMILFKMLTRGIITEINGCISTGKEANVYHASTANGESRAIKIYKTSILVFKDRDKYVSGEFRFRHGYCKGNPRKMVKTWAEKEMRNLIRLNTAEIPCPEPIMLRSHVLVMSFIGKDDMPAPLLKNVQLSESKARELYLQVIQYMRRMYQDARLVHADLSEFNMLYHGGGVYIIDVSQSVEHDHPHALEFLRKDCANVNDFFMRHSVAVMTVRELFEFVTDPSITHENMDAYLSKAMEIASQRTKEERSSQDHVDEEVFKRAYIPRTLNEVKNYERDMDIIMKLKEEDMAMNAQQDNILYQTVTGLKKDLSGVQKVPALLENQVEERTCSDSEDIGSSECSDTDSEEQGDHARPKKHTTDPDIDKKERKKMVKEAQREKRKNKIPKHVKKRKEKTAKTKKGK
# Chain of AURKC (human) (Q9UQB9 whole entry, looked up): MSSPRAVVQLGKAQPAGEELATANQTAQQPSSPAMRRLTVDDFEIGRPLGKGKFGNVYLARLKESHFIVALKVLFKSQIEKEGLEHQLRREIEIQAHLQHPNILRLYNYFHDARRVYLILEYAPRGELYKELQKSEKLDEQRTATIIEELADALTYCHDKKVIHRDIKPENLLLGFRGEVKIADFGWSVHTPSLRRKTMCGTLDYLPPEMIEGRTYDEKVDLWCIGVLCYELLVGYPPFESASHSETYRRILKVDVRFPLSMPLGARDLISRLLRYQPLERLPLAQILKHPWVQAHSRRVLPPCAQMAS
# Chain of EGFR (human), P00533 [747-751 del / S ins] (P00533 whole entry, looked up, stated change not applied): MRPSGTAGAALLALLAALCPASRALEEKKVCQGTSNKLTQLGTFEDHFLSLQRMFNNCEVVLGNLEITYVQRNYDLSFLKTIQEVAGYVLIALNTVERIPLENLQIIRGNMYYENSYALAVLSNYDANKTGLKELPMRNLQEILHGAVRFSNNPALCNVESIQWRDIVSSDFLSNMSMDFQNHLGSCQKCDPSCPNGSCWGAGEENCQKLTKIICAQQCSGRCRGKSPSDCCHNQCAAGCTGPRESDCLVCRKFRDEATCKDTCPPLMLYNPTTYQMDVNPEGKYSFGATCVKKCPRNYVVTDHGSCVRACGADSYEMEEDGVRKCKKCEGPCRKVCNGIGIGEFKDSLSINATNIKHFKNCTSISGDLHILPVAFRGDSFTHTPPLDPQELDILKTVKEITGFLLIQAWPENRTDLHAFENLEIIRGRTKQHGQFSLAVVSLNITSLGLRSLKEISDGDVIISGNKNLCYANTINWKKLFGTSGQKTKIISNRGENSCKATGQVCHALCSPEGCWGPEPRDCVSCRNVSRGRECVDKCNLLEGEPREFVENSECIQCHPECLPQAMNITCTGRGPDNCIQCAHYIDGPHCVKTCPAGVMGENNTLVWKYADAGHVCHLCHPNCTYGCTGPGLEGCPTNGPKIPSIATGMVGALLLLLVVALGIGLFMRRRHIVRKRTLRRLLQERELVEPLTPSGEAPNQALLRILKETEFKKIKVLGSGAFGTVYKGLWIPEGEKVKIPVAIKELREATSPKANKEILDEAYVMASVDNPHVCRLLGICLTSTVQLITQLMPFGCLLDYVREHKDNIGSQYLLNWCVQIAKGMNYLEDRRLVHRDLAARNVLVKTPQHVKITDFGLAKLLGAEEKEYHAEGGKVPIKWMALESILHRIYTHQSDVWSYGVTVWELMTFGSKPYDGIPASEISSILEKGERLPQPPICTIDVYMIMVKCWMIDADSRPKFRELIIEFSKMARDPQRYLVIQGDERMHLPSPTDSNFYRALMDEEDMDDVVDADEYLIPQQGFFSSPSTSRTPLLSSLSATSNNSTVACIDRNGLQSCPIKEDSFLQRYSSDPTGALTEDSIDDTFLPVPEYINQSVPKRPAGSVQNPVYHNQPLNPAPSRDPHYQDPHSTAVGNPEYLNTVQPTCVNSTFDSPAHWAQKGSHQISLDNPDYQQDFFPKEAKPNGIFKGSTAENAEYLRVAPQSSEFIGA
# Chain of TGFBR2 (human) (P37173 whole entry, looked up): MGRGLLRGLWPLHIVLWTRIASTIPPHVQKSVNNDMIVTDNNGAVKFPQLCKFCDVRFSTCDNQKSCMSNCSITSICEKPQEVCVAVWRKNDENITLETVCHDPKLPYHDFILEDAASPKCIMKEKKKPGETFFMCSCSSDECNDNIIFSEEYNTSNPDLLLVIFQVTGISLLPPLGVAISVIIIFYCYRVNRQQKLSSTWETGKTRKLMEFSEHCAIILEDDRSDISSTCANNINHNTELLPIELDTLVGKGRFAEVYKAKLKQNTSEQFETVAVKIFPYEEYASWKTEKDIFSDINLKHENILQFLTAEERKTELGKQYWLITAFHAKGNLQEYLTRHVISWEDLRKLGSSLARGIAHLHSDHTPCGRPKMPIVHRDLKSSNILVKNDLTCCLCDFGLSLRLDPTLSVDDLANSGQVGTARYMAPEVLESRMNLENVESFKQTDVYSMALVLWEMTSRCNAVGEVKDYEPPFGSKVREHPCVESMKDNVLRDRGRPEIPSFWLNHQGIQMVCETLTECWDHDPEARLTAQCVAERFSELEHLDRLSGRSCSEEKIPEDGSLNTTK
# Chain of AURKB (human) (Q96GD4 whole entry, looked up): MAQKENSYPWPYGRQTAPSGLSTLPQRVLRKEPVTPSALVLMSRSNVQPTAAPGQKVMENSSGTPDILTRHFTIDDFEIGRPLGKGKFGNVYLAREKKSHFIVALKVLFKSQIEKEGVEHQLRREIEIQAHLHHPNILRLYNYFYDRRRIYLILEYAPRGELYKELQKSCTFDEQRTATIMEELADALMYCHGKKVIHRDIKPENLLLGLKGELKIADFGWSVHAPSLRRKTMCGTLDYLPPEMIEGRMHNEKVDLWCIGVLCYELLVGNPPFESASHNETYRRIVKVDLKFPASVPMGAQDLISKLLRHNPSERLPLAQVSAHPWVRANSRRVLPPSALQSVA
# Chain of KIT (human), P10721 [V559D/V654A] (P10721 whole entry V559D/V654A, looked up): as the sequence (P10721 whole entry V559D, looked up) above, with V654A counted along it
compound,measurement,setting,value
COc1cc(N2CCN(C)CC2)ccc1Nc1ncc2c(n1)Nc1ccccc1NC2=O,"kinase still bound, per cent of control",[1],74%
same,"kinase still bound, per cent of control",[2],1%
same,"kinase still bound, per cent of control",[3],76%
same,"kinase still bound, per cent of control",[4],67%
same,"kinase still bound, per cent of control",[5],6.8%
same,"kinase still bound, per cent of control",[6],82%
same,"kinase still bound, per cent of control",[7],100%
same,"kinase still bound, per cent of control",[8],2.1%
same,"kinase still bound, per cent of control",[9],95%
same,"kinase still bound, per cent of control",[10],75%
same,"kinase still bound, per cent of control",[11],12%
same,"kinase still bound, per cent of control",[12],70%
same,"kinase still bound, per cent of control",[13],55%
same,"kinase still bound, per cent of control",[14],100%
same,"kinase still bound, per cent of control",[15],20%
same,"kinase still bound, per cent of control",[16],100%
same,"kinase still bound, per cent of control",[17],91%
same,"kinase still bound, per cent of control",[18],2.9%
same,"kinase still bound, per cent of control",[19],96%
same,"kinase still bound, per cent of control",[20],25%
same,"kinase still bound, per cent of control",[21],69%
same,"kinase still bound, per cent of control",[22],93%
same,"kinase still bound, per cent of control",[23],59%
same,"kinase still bound, per cent of control",[24],68%
same,"kinase still bound, per cent of control",[25],76%
same,"kinase still bound, per cent of control",[26],80%
same,"kinase still bound, per cent of control",[27],67%
same,"kinase still bound, per cent of control",[28],32%
same,"kinase still bound, per cent of control",[29],88%
same,"kinase still bound, per cent of control",[30],63%
same,"kinase still bound, per cent of control",[31],100%
same,"kinase still bound, per cent of control",[32],90%
same,"kinase still bound, per cent of control",[33],69%
same,"kinase still bound, per cent of control",[34],100%
same,"kinase still bound, per cent of control",[35],5.8%
same,"kinase still bound, per cent of control",[36],59%
same,"kinase still bound, per cent of control",[37],75%
same,"kinase still bound, per cent of control",[38],62%
same,"kinase still bound, per cent of control",[39],64%
same,"kinase still bound, per cent of control",[40],55%
same,"kinase still bound, per cent of control",[41],100%
same,"kinase still bound, per cent of control",[42],34%
COc1cc(N2CCN(C)CC2)ccc1Nc1ncc2c(n1)N(C)c1sccc1C(=O)N2C,"kinase still bound, per cent of control",[1],89%
same,"kinase still bound, per cent of control",[2],43%
same,"kinase still bound, per cent of control",[3],67%
same,"kinase still bound, per cent of control",[4],71%
same,"kinase still bound, per cent of control",[5],46%
same,"kinase still bound, per cent of control",[6],55%
same,"kinase still bound, per cent of control",[7],90%
same,"kinase still bound, per cent of control",[8],13%
same,"kinase still bound, per cent of control",[9],78%
same,"kinase still bound, per cent of control",[10],93%
same,"kinase still bound, per cent of control",[11],82%
same,"kinase still bound, per cent of control",[12],74%
same,"kinase still bound, per cent of control",[13],71%
same,"kinase still bound, per cent of control",[14],73%
same,"kinase still bound, per cent of control",[15],74%
same,"kinase still bound, per cent of control",[16],100%
same,"kinase still bound, per cent of control",[17],100%
same,"kinase still bound, per cent of control",[18],18%
same,"kinase still bound, per cent of control",[19],81%
same,"kinase still bound, per cent of control",[20],78%
same,"kinase still bound, per cent of control",[21],24%
same,"kinase still bound, per cent of control",[22],71%
same,"kinase still bound, per cent of control",[23],91%
same,"kinase still bound, per cent of control",[24],52%
same,"kinase still bound, per cent of control",[25],82%
same,"kinase still bound, per cent of control",[26],15%
same,"kinase still bound, per cent of control",[27],46%
same,"kinase still bound, per cent of control",[28],94%
same,"kinase still bound, per cent of control",[29],91%
same,"kinase still bound, per cent of control",[30],99%
same,"kinase still bound, per cent of control",[31],52%
same,"kinase still bound, per cent of control",[32],42%
same,"kinase still bound, per cent of control",[33],87%
same,"kinase still bound, per cent of control",[34],7%
same,"kinase still bound, per cent of control",[35],24%
same,"kinase still bound, per cent of control",[36],56%
same,"kinase still bound, per cent of control",[37],62%
same,"kinase still bound, per cent of control",[38],66%
same,"kinase still bound, per cent of control",[39],58%
same,"kinase still bound, per cent of control",[40],82%
same,"kinase still bound, per cent of control",[41],56%
same,"kinase still bound, per cent of control",[42],100%
